The subject of series [1] is TNF-α production in LPS-stimulated human whole blood. The series is described as follows: Inhibition of TNF-α production from human whole blood (hWBA). The format is cell-based. The settings on record: IC50 for TNF-α production, LPS-stimulated human whole blood; read-out: hWBA.
Series [2] can be described thus: Area under the curve determination of plasma levels in rats (rrAUC). Format: in vivo. The following applies: rat, oral 10 mg/kg, plasma 0.5-6 h; read-out: RR AUC (nM · h), rapid rat AUC (rrAUC).

Data on ten compounds can be found in patent US8541572B2.

Usually AUC stands for the area under the concentration-time curve, a measure of exposure. In the case of `COc1ccc2c(c1)C(=O)N(C[C@@]1(C#Cc3ccc(C4(C)NC(=O)NC4=S)cc3)NC(=O)NC1=O)C2` (some centres unmarked) [Compound 2258], the IC50 in series [1] was 398 nM. Also, the exposure (AUC) in series [2] amounted to 0.438 µM·h.

Regarding `COc1ccc2c(c1)C(=O)N(C[C@@]1(C#Cc3cccnc3-c3cnn(C)c3)NC(=O)NC1=O)C2` [Compound 2263], the IC50 in series [1] was found to be 2220 nM. Further, in series [2], the AUC came out at 0.187 µM·h.

Take `COc1ccc2c(c1F)C(=O)N(C[C@@]1(C#Cc3cccnc3)NC(=O)NC1=O)C2` [Compound 2267]: the IC50 in series [1] amounted to 134 nM. In addition, in series [2], the AUC was determined as 2.44 µM·h.

For `COc1ccc2c(c1)C(=O)N(C[C@@]1(C#Cc3ccc(-c4c(C)nn(C)c4C)nc3)NC(=O)NC1=O)C2` [Compound 2268], the IC50 in series [1] came out at 9030 nM. Besides, in series [2], the AUC was found to be 1.07 µM·h.

In the case of `COc1ccc2c(c1F)C(=O)N(C[C@@]1(C#Cc3cccnc3C)NC(=O)NC1=O)C2` [Compound 2273], in series [1], the IC50 came to 193 nM. In series [2], the AUC came to 2.89 µM·h.

As for `COc1ccc2c(c1F)C(=O)N(C[C@@]1(C#Cc3ccc(C)nc3)NC(=O)NC1=O)C2` [Compound 2274], the IC50 in series [1] was 396 nM. Moreover, in series [2], the AUC was 16.4 µM·h.

As for `CCN1CCC(C(=O)OC)(c2ccc(C#C[C@]3(CN4Cc5ccc(OC)cc5C4=O)NC(=O)NC3=O)cc2)CC1` [Compound 2276], in series [1], the IC50 came to 288 nM. Moreover, the AUC in series [2] was determined as 2.32 µM·h.

Regarding `COc1ccc2c(c1)C(=O)N(C[C@@]1(C#Cc3ccc(-c4ccccc4O)nc3)NC(=O)NC1=O)C2` [Compound 2277], the IC50 in series [1] turned out to be 2090 nM. In series [2], the AUC was found to be 0.271 µM·h.

In the case of `COc1ccc2c(c1)C(=O)N(C[C@@]1(C#Cc3ccc(C4(C)NC(=O)NC4=O)c(F)c3)NC(=O)NC1=O)C2` (some centres unmarked) [Compound 2282], the IC50 in series [1] is 243 nM. In addition, the AUC in series [2] was found to be 0.042 µM·h.

In the case of `COc1ccc2c(c1)C(=O)N(C[C@@]1(C#Cc3ccc4c(c3)CCCC43NC(=O)NC3=O)NC(=O)NC1=O)C2` (some centres unmarked) [Compound 2312], the IC50 in series [1] is 137 nM. For the same compound, the AUC in series [2] amounted to 0.014 µM·h.
